{"source": "patent US12384789B2", "about": "“Compounds for treating Huntington's disease” (PTC Therapeutics, Inc., priority 2017, dated 2025)", "data": [{"test_system": "Endogenous Huntingtin Protein", "experiment": "Endogenous Huntingtin Protein Assay (Meso Scale Discovery ELISA-based electrochemiluminescence)", "assay_type": "cell-based", "settings": "MSD electrochemiluminescence, Table 1", "how_it_was_run": "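MSD electrochemiluminescence sandwich ELISA: MW1 (expanded polyQ) or MAB2166 capture antibody at 1 μg/mL, samples incubated overnight at 4° C. Detection with rabbit monoclonal #5656S then SULFO-TAG anti-rabbit antibody, each 0.25 μg/mL for 1 h at room temperature.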", "units": {"IC50": "nM"}, "values": [{"smiles": "Cc1cn2nc(-c3cc(F)c4cc(N5CC6CC5CN6C)nnc4c3)cc(C)c2n1", "note": "(centres unmarked) [Compound 209, 7-(2,8-dimethylimidazo[1,2-b]pyridazin-6-yl)-5-fluoro-3-(5-methyl-2,5-diazabicyclo[2.2.1]heptan-2-yl)cinnoline]", "IC50": "100 to 500"}, {"smiles": "Cc1cn2cc(-c3cc(F)c4cc(C5CCNCC5)nnc4c3)ccc2n1", "note": "[Compound 210, 5-fluoro-7-(2-methylimidazo[1,2-a]pyridin-6-yl)-3-(piperidin-4-yl)cinnoline]", "IC50": "≤ 100"}, {"smiles": "Cc1cn2nc(-c3cc(F)c4cc(C5CCNCC5)nnc4c3)cc(C(C)C)c2n1", "note": "[Compound 211, 5-fluoro-7-[2-methyl-8-(propan-2-yl)imidazo[1,2-b]pyridazin-6-yl]-3-(piperidin-4-yl)cinnoline]", "IC50": "≤ 100"}, {"smiles": "CCCc1cc(-c2cc(F)c3cc(C4CCN(CC)CC4)nnc3c2)nn2cc(C)nc12", "note": "[Compound 212, 3-(1-ethylpiperidin-4-yl)-5-fluoro-7-(2-methyl-8-propylimidazo[1,2-b]pyridazin-6-yl)cinnoline]", "IC50": "100 to 500"}, {"smiles": "Cc1cc2oc(-c3cc(F)c4cc(C5CCN(CCO)CC5)nnc4c3)nc2c(C)n1", "note": "[Compound 213, 2-{4-[7-(4,6-dimethyl[1,3]oxazolo[4,5-c]pyridin-2-yl)-5-fluorocinnolin-3-yl]piperidin-1-yl}ethan-1-ol]", "IC50": "100 to 500"}, {"smiles": "Cc1cc2oc(-c3cc(F)c4cc(C5CCN(C)CC5)nnc4c3)nc2c(C)n1", "note": "[Compound 214, 7-(4,6-dimethyl[1,3]oxazolo[4,5-c]pyridin-2-yl)-5-fluoro-3-(1-methylpiperidin-4-yl)cinnoline]", "IC50": "100 to 500"}, {"smiles": "Cc1cn2nc(-c3cc(F)c4cc(N5C[C@@H]6C[C@H]5CN6C)nnc4c3)cc(C)c2n1", "note": "[Compound 215, 7-(2,8-dimethylimidazo[1,2-b]pyridazin-6-yl)-5-fluoro-3-[(1S,4S)-5-methyl-2,5-diazabicyclo[2.2.1]heptan-2-yl]cinnoline]", "IC50": "≤ 100"}, {"smiles": "Cc1cn2nc(-c3cc(F)c4cc(C5CCCNC5)nnc4c3)cc(C)c2n1", "note": "(centres unmarked) [Compound 216, 7-(2,8-dimethylimidazo[1,2-b]pyridazin-6-yl)-5-fluoro-3-(piperidin-3-yl)cinnoline]", "IC50": "≤ 100"}, {"smiles": "Cc1cn2nc(-c3cc(F)c4cc(N5CC6(CCNC6)C5)nnc4c3)cc(C)c2n1", "note": "[Compound 217, 3-(2,6-diazaspiro[3.4]octan-2-yl)-7-(2,8-dimethylimidazo[1,2-b]pyridazin-6-yl)-5-fluorocinnoline]", "IC50": "≤ 100"}, {"smiles": "Cc1cn2nc(-c3cc(F)c4cc(N5CC6(CCCNC6)C5)nnc4c3)cc(C)c2n1", "note": "[Compound 218, 3-(2,6-diazaspiro[3.5]nonan-2-yl)-7-(2,8-dimethylimidazo[1,2-b]pyridazin-6-yl)-5-fluorocinnoline]", "IC50": "≤ 100"}, {"smiles": "Cc1cn2nc(-c3cc(F)c4cc(N5CCC6(CC5)CNC6)nnc4c3)cc(C)c2n1", "note": "[Compound 219, 3-(2,7-diazaspiro[3.5]nonan-7-yl)-7-(2,8-dimethylimidazo[1,2-b]pyridazin-6-yl)-5-fluorocinnoline]", "IC50": "≤ 100"}, {"smiles": "Cc1cn2nc(-c3cc(F)c4cc(N5CCC6(CNC6)C5)nnc4c3)cc(C)c2n1", "note": "[Compound 220, 3-(2,6-diazaspiro[3.4]octan-6-yl)-7-(2,8-dimethylimidazo[1,2-b]pyridazin-6-yl)-5-fluorocinnoline]", "IC50": "100 to 500"}, {"smiles": "Cc1cn2nc(-c3cc(F)c4cc(N5CC6(CCNCC6)C5)nnc4c3)cc(C)c2n1", "note": "[Compound 221, 3-(2,7-diazaspiro[3.5]nonan-2-yl)-7-(2,8-dimethylimidazo[1,2-b]pyridazin-6-yl)-5-fluorocinnoline]", "IC50": "≤ 100"}, {"smiles": "CCN1CCC(c2cc3c(F)cc(-c4cc(C(C)C)c5nc(C)cn5n4)cc3nn2)CC1", "note": "[Compound 222, 3-(1-ethylpiperidin-4-yl)-5-fluoro-7-[2-methyl-8-(propan-2-yl)imidazo[1,2-b]pyridazin-6-yl]cinnoline]", "IC50": "100 to 500"}, {"smiles": "Cc1cn2nc(-c3cc(F)c4cc(N5C[C@@H]6[C@H](C5)[C@H]6N(C)C)nnc4c3)cc(C)c2n1", "note": "[Compound 223, (1R,5S,6s)-3-[7-(2,8-dimethylimidazo[1,2-b]pyridazin-6-yl)-5-fluorocinnolin-3-yl]-N,N-dimethyl-3-azabicyclo[3.1.0]hexan-6-amine]", "IC50": "≤ 100"}, {"smiles": "Cc1cn2nc(-c3cc(F)c4cc(N5CCC(C)(N(C)C)CC5)nnc4c3)cc(C)c2n1", "note": "[Compound 224, 1-[7-(2,8-dimethylimidazo[1,2-b]pyridazin-6-yl)-5-fluorocinnolin-3-yl]-N,N,4-trimethylpiperidin-4-amine]", "IC50": "≤ 100"}, {"smiles": "Cc1cn2nc(-c3cc(F)c4cc(C5=CCNCC5)nnc4c3)cc(C)c2n1", "note": "[Compound 225, 7-(2,8-dimethylimidazo[1,2-b]pyridazin-6-yl)-5-fluoro-3-(1,2,3,6-tetrahydropyridin-4-yl)cinnoline]", "IC50": "≤ 100"}, {"smiles": "Cc1nc2c(C)cc(-c3cc(F)c4cc(C5C[C@@H](C)N(C)[C@@H](C)C5)nnc4c3)nc2o1", "note": "(stereo partly drawn) [Compound 226, 5-(5-fluoro-3-((2S,4R,6R)-1,2,6-trimethylpiperidin-4-yl)cinnolin-7-yl)-2,7-dimethyloxazolo[5,4-b]pyridine]", "IC50": "≤ 100"}, {"smiles": "Cc1cc(-c2cc(F)c3cc(C4C[C@@H](C)N(C)[C@@H](C)C4)nnc3c2)nc2cn(C)nc12", "note": "(stereo partly drawn) [Compound 227, 7-(2,7-dimethyl-2H-pyrazolo[4,3-b]pyridin-5-yl)-5-fluoro-3-((2S,4R,6R)-1,2,6-trimethylpiperidin-4-yl)cinnoline]", "IC50": "≤ 100"}, {"smiles": "Cc1cc2oc(-c3cc(F)c4cc(C5C[C@@H](C)N(C)[C@@H](C)C5)nnc4c3)nc2c(C)n1", "note": "(stereo partly drawn) [Compound 228, 7-(4,6-dimethyloxazolo[4,5-c]pyridin-2-yl)-5-fluoro-3-((2S,4R,6R)-1,2,6-trimethylpiperidin-4-yl)cinnoline]", "IC50": "100 to 500"}]}]}
